# Counter-ions that a name gives are not always drawn.
# Target: 5-HT3a receptor (Homo sapiens (Human), UniProt P46098)
# Test: Inhibition of Ca flux activity of 5-HT3 in vitro assay
# Format: cell-based
# Settings: not given
# Procedure: The 5-HT3 antagonist activity of the compounds of the invention was determined by measuring the ability of the compounds to inhibit the calcium flux activity of […] receptor expressed in HEK-293T cells. HEK-293T cells were transfected with the 5-HT3a expression construct using Xtreme Gene 9 (Roche) in 150 mm tissue culture treated plates and incubated for 24 hours at 37° C. Cells were then split and plated at a density of 60K cells/well in poly-lysine coated, black 96-well plates with clear bottoms (BD BioSciences) and incubated overnight at 37° C. Growth media was removed and cells loaded with 200 uL calcium indicator dye in HBSS containing 20 mM HEPES (Calcium 5 Assay kit, Molecular Devices) and incubated at 37° C. for 1 hour. While cells were incubating, the 10× antagonist and agonist/antagonist addition plates were made. For 10× antagonist plate: half log serial dilutions (final concentrations range from 10^−7 through 10^−10 with the bottom well a negative, no ligand control) were made from test compounds in DMSO at a 1000× concentration and then diluted to 10× in HBSS/20 mM HEPES. For addition plate: 5HT was diluted to 100× in HBSS/20 mM HEPES (final concentration in the assay—216 nM) and 15 uL was added to each well of the addition plate, 15 uL of 10× compound was also added to the addition plate, and finally 120 uL of HBSS/20 mM HEPES (for a total of 150 uL). Cells were then removed from the incubator and equilibrated to room temperature for 10 minutes, then 22.5 uL of 10× test compounds were added in triplicate to the plates and incubated at room temperature for 10 minutes (Tropisetron was used as a positive control in every assay). Test plate and addition plate were loaded into the FlexStation III (Molecular Devices), and using the fluidics, 22.5 uL compound additions were made (at t=˜17 seconds), and fluorescence was measured for 90 seconds, reading every 2.2 seconds. Data sets were analyzed as max minus min using Software Max Pro (Molecular Devices). IC50 curves were generated using non-linear regression in GraphPad Prism.
# Chain of 5-HT3a receptor (P46098 24-478): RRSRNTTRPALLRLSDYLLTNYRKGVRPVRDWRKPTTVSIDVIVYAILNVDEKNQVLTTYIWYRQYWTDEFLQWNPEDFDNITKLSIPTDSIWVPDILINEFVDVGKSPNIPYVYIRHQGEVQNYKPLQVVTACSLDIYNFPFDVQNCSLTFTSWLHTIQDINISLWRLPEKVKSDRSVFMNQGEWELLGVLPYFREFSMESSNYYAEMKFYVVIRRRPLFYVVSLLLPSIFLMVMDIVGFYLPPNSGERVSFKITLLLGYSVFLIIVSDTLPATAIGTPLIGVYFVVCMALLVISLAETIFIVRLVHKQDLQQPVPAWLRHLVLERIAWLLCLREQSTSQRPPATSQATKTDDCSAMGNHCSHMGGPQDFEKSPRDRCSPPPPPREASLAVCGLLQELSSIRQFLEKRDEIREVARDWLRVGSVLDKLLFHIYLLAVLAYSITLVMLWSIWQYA
row,SMILES,IC50 [nM]
1,"CN1C2COCC1CC(OC(=O)c1c[nH]c3ccccc13)C2 [Reference 7, (1R,5S,7S)-9-methyl-3-oxa-9-azabicyclo[3.3.1]nonan-7-yl 1H-indole-3-carboxylate, reference compound]",89.1

# Same assay, conditions: approximate IC50; calcium flux, 5-HT3a expressed in HEK-293T cells, 5HT 216 nM; read-out: IC50
row,SMILES,IC50 [nM]
1,"Cn1cc(-n2cc(C(=O)O[C@H]3C[C@H]4COC[C@@H](C3)N4)c3ccccc32)cn1 [Compound 9, (1R,5S,7S)-3-oxa-9-azabicyclo [3.3.1]nonan-7-yl 1-(1-methyl-1H-pyrazol-4-yl)-1H-indol-3-carboxylate, 2,2,2-trifluoroacetic acid salt]",0.68
2,"CN1[C@@H]2COC[C@H]1CC(NC(=O)c1cn(-c3cccnc3)c3ccccc13)C2 (stereo partly drawn) [Compound 6, N-((1R,5S,7S)-9-methyl-d3-3-oxa-9-azabicyclo[3.3.1]nonan-7-yl)-1-(pyridin-3-yl)-1H-indole-3-carboxamide, 2,2,2-trifluoroacetate]",1.1
3,"O=C(N[C@H]1C[C@H]2COC[C@@H](C1)N2)c1cn(-c2cn[nH]c2)c2ccccc12 [Compound 30, N-((1R,5S,7S)-3-oxa-9-azabicyclo[3.3.1]nonan-7-yl)-1-(1H-pyrazol-4-yl)-1H-indole-3-carboxamide]",0.745
4,"CN1[C@@H]2COC[C@H]1C[C@@H](NC(=O)c1cn(-c3ccn(C)n3)c3ccccc13)C2 [Compound 17, 1-(1-methyl-1H-pyrazol-3-yl)-N-((1R,5S,7S)-9-methyl-3-oxa-9-azabicyclo [3.3.1]nonan-7-yl)-1H-indole-3-carboxamide, 2,2,2-trifluoroacetic acid salt]",0.75
5,"CN1[C@@H]2COC[C@H]1CC(NC(=O)c1cn(-c3ccncc3)c3ccccc13)C2 (stereo partly drawn) [Compound 4, N-((1R,5S,7S)-9-methyl-3-oxa-9-azabicyclo[3.3.1]nonan-7-yl)-1-(pyridin-4-yl)-1H-indole-3-carboxamide, 2,2,2-trifluoroacetate]",0.69
6,"CN1[C@@H]2COC[C@H]1C[C@@H](NC(=O)c1cn(-c3cnn(C(F)F)c3)c3ccccc13)C2 [Compound 25, 1-(1-(difluoromethyl)-1H-pyrazol-4-yl)-N-((1R,5S,7S)-9-methyl-3-oxa-9-azabicyclo [3.3.1]nonan-7-yl)-1H-indole-3-carboxamide]",1.39
7,"CN1[C@@H]2COC[C@H]1C[C@@H](NC(=O)c1cn(-c3cccnc3)c3ncc(F)cc13)C2 [Compound 13, 5-fluoro-N-((1R,5S,7S)-9-methyl-3-oxa-9-azabicyclo [3.3.1]nonan-7-yl)-1-(pyridin-3-yl)-1H-pyrrolo[2,3-b]pyridine-3-carboxamide, 2,2,2-trifluoroacetic acid salt]",0.72
8,"CN1[C@@H]2COC[C@H]1C[C@@H](NC(=O)c1cn(-c3ccccn3)c3ncccc13)C2 [Compound 10, N-(1R,5S,7S)-9-methyl-3-oxa-9-azabicyclo[3.3.1]nonan-7-yl)-1-(pyridin-2-yl)-1H-pyrrolo[2,3-b]pyridine-3-carboxamide, 2,2,2-trifluoroacetic acid salt]",0.65
9,"CN1[C@@H]2COC[C@H]1C[C@@H](OC(=O)c1cn(-c3ccccn3)c3ccccc13)C2 [Compound 7, (1R,5S,7S)-9-methyl-d3-3-oxa-9-azabicyclo[3.3.1]nonan-7-yl 1-(pyridin-2-yl)-1H-indole-3-carboxylate, 2,2,2-trifluoroacetate]",2.86
10,"CN1[C@@H]2COC[C@H]1C[C@@H](NC(=O)c1cn(-c3ccccn3)c3ccccc13)C2 [Compound 3, N-((1R,5S,7S)-9-methyl-3-oxa-9-azabicyclo[3.3.1]nonan-7-yl)-1-(pyridin-2-yl)-1H-indole-3-carboxamide, 2,2,2-trifluoroacetate]",0.96
11,"CN1[C@@H]2COC[C@H]1C[C@@H](NC(=O)c1cn(-c3cccnc3)c3ccccc13)C2 [Compound 2, N-((1R,5S,7S)-9-methyl-3-oxa-9-azabicyclo[3.3.1]nonan-7-yl)-1-(pyridin-3-yl)-1H-indole-3-carboxamide, 2,2,2-trifluoroacetate]",0.51
12,"CCN1[C@@H]2COC[C@H]1C[C@@H](NC(=O)c1cn(-c3cnn(C)c3)c3ccccc13)C2 [Compound 31, N-((1R,5S,7S)-9-ethyl-3-oxa-9-azabicyclo[3.3.1]nonan-7-yl)-1-(1-methyl-1H-pyrazol-4-yl)-1H-indole-3-carboxamide]",> 1000
13,"CN1[C@@H]2COC[C@H]1C[C@@H](NC(=O)c1cn(-c3ccccn3)c3ccccc13)C2 [Compound 8, N-((1R,5S,7S)-9-methyl-d3-3-oxa-9-azabicyclo[3.3.1]nonan-7-yl)-1-(pyridin-2-yl)-1H-indole-3-carboxamide, 2,2,2-trifluoroacetate]",0.81
14,"Cn1ccc(-n2cc(C(=O)O[C@H]3C[C@H]4COC[C@@H](C3)N4)c3ccccc32)n1 [Compound 16, (1R,5S,7S)-3-oxa-9-azabicyclo[3.3.1]nonan-7-yl 1-(1-methyl-1H-pyrazol-3-yl)-1H-indole-3-carboxylate, 2,2,2-trifluoroacetic acid salt]",2.5
15,"Cn1cc(-n2cc(C(=O)N[C@H]3C[C@H]4COC[C@@H](C3)N4)c3ccccc32)cn1 [Compound 28, N-((1R,5S,7S)-3-oxa-9-azabicyclo[3.3.1]nonan-7-yl)-1-(1-methyl-1H-pyrazol-4-yl)-1H-indole-3-carboxamide]",2.04
16,"CN1[C@@H]2COC[C@H]1C[C@@H](NC(=O)c1cn(-c3ccnn3C)c3ccccc13)C2 [Compound 23, 1-(1-methyl-1H-pyrazol-5-yl)-N-((1R,5S,7S)-9-methyl-3-oxa-9-azabicyclo[3.3.1]nonan-7-yl)-1H-indole-3-carboxamide, 2,2,2-trifluoroacetic acid salt]",1.01
17,"CN1[C@@H]2COC[C@H]1C[C@@H](NC(=O)c1nn(-c3ccccn3)c3ccccc13)C2 [Compound 14, N-((1R,5S,7S)-9-methyl-3-oxa-9-azabicyclo[3.3.1]nonan-7-yl)-1-(pyridin-2-yl)-1H-indazole-3-carboxamide, 2,2,2-trifluoroacetic acid salt]",1.34
18,"Cc1ccncc1-n1cc(C(=O)N[C@H]2C[C@H]3COC[C@@H](C2)N3C)c2ccccc21 [Compound 21, N-((1R,5S,7S)-9-methyl-3-oxa-9-azabicyclo[3.3.1]nonan-7-yl)-1-(4-methylpyridin-3-yl)-1H-indole-3-carboxamide, 2,2,2-trifluoroacetic acid salt]",1.1
19,"CN1[C@@H]2COC[C@H]1C[C@@H](NC(=O)c1cn(-c3cccnc3)c3ncccc13)C2 [Compound 11, N-((1R,5S,7S)-9-methyl-3-oxa-9-azabicyclo[3.3.l]nonan-7-yl)-1-(pyridin-3-yl)-1H-pyrrolo[2,3-b]pyridine-3-carboxamide, 2,2,2-trifluoroacetic acid salt]",0.6
20,"Cc1ncccc1-n1cc(C(=O)N[C@H]2C[C@H]3COC[C@@H](C2)N3C)c2ccccc21 [Compound 20, N-((1R,5S,7S)-9-methyl-3-oxa-9-azabicyclo[3.3.1]nonan-7-yl)-1-(2-methylpyridin-3-yl)-1H-indole-3-carboxamide, 2,2,2-trifluoroacetic acid salt]",1.5
21,"N#Cc1cc(-n2cc(C(=O)O[C@H]3C[C@H]4COC[C@@H](C3)N4)c3ccccc32)ccn1 [Compound 19, (1R,5S,7S)-3-oxa-9-azabicyclo[3.3.1]nonan-7-yl 1-(2-cyanopyridin-4-yl)-1H-indole-3-carboxylate, 2,2,2-trifluoroacetic acid salt]",3.68
22,"O=C(O[C@H]1C[C@H]2COC[C@@H](C1)N2)c1cn(-c2cccnc2)c2ccccc12 [Compound 5, (1R,5S,7S)-3-oxa-9-azabicyclo [3.3.1]nonan-7-yl 1-(pyridin-3-yl)-1H-indole-3-carboxylate, 2,2,2-trifluoroacetate]",0.62
23,"CN1[C@@H]2COC[C@H]1C[C@@H](NC(=O)c1cn(-c3ccccn3)c3ncc(F)cc13)C2 [Compound 12, 5-fluoro-N-((1R,5S,7S)-9-methyl-3-oxa-9-azabicyclo [3.3.1]nonan-7-yl)-1-(pyridin-2-yl)-1H-pyrrolo[2,3-b]pyridine-3-carboxamide, 2,2,2-trifluoroacetic acid salt]",0.882
24,"CN1[C@@H]2COC[C@H]1C[C@@H](OC(=O)c1cn(-c3cnn(CCF)c3)c3ccccc13)C2 [Compound 18, (1R,5S,7S)-9-methyl-3-oxa-9-azabicyclo[3.3.1]nonan-7-yl 1-(1-(2-fluoroethyl)-1H-pyrazol-4-yl)-1H-indole-3-carboxylate, 2,2,2-trifluoroacetic acid salt]",2.01

# Target: nicotinic α-7 receptor (Homo sapiens (Human), UniProt P36544)
# Test: Nicotinic α-7 receptor binding assay
# Settings: binding at the nicotinic α-7 receptor, carried out at Eurofins Pharma Services
# Procedure: The evaluation of binding at the nicotinic α-7 receptor was carried out at Eurofins Pharma Services.
# Chain of nicotinic α-7 receptor (P36544 23-502): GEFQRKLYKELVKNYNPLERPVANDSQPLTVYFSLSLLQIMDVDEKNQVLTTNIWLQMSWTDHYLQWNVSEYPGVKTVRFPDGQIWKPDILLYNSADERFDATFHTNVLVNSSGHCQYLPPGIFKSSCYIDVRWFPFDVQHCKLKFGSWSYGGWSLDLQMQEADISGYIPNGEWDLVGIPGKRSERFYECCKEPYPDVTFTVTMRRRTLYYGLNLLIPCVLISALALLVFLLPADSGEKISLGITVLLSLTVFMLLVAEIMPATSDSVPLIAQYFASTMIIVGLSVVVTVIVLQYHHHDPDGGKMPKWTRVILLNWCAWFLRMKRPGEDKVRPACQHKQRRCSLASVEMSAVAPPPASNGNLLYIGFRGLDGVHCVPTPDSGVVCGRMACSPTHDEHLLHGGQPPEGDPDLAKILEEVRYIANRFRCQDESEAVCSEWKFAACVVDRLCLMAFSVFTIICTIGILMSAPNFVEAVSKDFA
row,SMILES,IC50 [nM]
1,"CN1C2COCC1CC(OC(=O)c1c[nH]c3ccccc13)C2 [Reference 7, (1R,5S,7S)-9-methyl-3-oxa-9-azabicyclo[3.3.1]nonan-7-yl 1H-indole-3-carboxylate, reference compound]",1660

# Reference: patent US9346829B2, “5-HT3 receptor antagonists” (Takeda Phamaceutical Company Limited, priority 2012, dated 2016)
